Results on eight compounds are retold here after US20090099167A1, “Organic compounds” (Novartis Institutes for Biomedical Research, priority 2004, published 2009).

The target of data set [1] is Cdk1/cycB (UniProt P06493). In words: Cdk1/cycB kinase assay, histone H1 substrate. The format is biochemical, starfish. To be noted: Table 4; read-out: Cdk1, activity (IC50 for kinase inhibition). As for the experimental part:
The inhibition of Cdk1 can be determined as follows: Cdk1/cycB: Cdk1/cycB are obtained from ProQinase, Freiburg, Germany. Starfish oocytes are induced to enter M phase of the cell cycle with 10 μM 1-methyladenine and frozen in liquid nitrogen and stored at −80° C. […] Briefly, the supernatant from oocytes is equilibrated for 30 min at 4° C. under constant rotation with the p9^CKShs-sepharose beads. The beads are extensively washed and active cdk1/cycB kinase is eluted with purified p9^CKShs (3 mg/ml). […] The assay is carried with slight modifications in 96-well plates at ambient temperature for 20 min. […] The reaction is terminated by addition of 25 μl 0.05 M EDTA pH 7.0. An aliquot of 40 μl is spotted with a multichannel dispenser on Immobilon P membranes mounted in a Millipore Microtiter filter manifold connected to a low vacuum source. After elimination of liquid, the membrane is transferred to a sequence of 4 washing baths containing 0.5% H3PO4 and one with EtOH (shaking incubation for 10 min each), dried, mounted onto a Hewlett Packard TopCount manifold added 10 μl Microscint® and counted. […] Cells were seeded at 2.5×10^7 cells per 150 mm dish and allowed to attach to a 150 mm dish for 1 hr at RT. Media (SF900II containing 10% FBS) is aspirated and recombinant baculovirus; GST-C-Raf-1, v-Ras and v-Src are added at MOI of 3.0, 2.5 and 2.5 receptively in a total volume of 4-5 mL. Cells are incubated for 1 hr at RT and then 15 mL of medium is added. Infected cells are incubated for 48-72 hr at 27° C. Infected Sf21 cells are scraped and collected into a 50 mL tube and centrifuged for 10 min at 4° C. at 1100 g in a Sorvall centrifuge. The cell pellet is washed once with ice cold PBS and lysed with 0.6 mL lysis buffer per 2.5×10^7 cells. Complete lysis of cells is achieved after 10 min on ice with occasional pipetting. […] GST-c-Raf-1 was allowed to bind to the beads at 4° C. for 1 hr with rocking. Bound GST-c-Raf-1 with beads was transferred to a column. The column is washed once with lysis buffer and twice with ice cold Tris buffered saline. Ice cold elution buffer is added and column flow is stopped to allow the free glutathione to disrupt the interaction of GST-c-Raf-1 with glutathione sepharose beads. Fractions (1 mL) are collected into pre-chilled tubes. Each tube contains 10% glycerol (final concentration) to maintain kinase activity during freeze thaw cycles. Purified fractions of GST-c-Raf-1 kinase protein are stored at −80° C.

The target in data set [2] is T1, human EphB4 receptor (Homo sapiens, UniProt P54760).
T1 construct: made in house; host or cells: Sf9 or Sf21 (baculovirus)
T1 sequence (P54760 566-987): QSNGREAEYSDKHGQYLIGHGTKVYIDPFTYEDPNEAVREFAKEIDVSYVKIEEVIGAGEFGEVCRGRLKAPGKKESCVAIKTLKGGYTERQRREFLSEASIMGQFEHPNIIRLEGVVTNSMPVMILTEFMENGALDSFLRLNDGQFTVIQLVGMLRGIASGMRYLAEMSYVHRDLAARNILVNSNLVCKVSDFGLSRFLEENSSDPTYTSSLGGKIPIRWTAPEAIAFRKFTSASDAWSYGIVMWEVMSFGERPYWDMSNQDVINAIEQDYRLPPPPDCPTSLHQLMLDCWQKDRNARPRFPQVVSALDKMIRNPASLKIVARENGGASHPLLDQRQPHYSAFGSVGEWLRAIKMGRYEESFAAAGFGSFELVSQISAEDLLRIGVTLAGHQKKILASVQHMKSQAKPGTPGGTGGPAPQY
In words: EphB4 kinase assay, GST-EphB, 33P incorporation into poly(Glu,Tyr). The format is biochemical. An excerpt:
EphB4: Production and measure of enzymatic activity: Generation of Bac-to-Bac™ (Initrogen Life Technologies, Basel, Switzerland) GST-fusion expression vectors: Entire cytoplasmatic coding regions of the EphB-class are amplified by PCR from cDNA libraries derived from human placenta or brain, respectively. Recombinant baculovirus are generated that express the amino acid region 566-987 of the human EphB4 receptor (SwissProt Database, Accession No. P54760). GST sequence is cloned into pFastBac1® vector (Invitrogen Life Technologies, Basel, Switzerland) and PCR amplified. cDNAs encoding EphB4-receptor domains, respectively, are cloned in frame 3′prime to the GST sequence into this modified FastBac1 vector to generate pBac-to-Bac™ donor vectors. Single colonies arising from the transformation are inoculated to give overnight cultures for small scale plasmid preparation. […] By automated sequencing the inserts and approximately 50 bp of the flanking vector sequences are confirmed on both strands. Production of viruses: Viruses for each of the kinases are made according to the protocol supplied by GIBCO if not stated otherwise. In brief, transfer vectors containing the kinase domains are transfected into the DH10Bac cell line (GIBCO) and plated on selective agar plates. Colonies without insertion of the fusion sequence into the viral genome (carried by the bacteria) are blue. Single white colonies are picked and viral DNA (bacmid) isolated from the bacteria by standard plasmid purification procedures. Sf9 cells or Sf21 cells are then transfected in 25 cm2 flasks with the viral DNA using Cellfectin reagent according to the protocol. Purification of GST-tagged kinases: The centrifuged cell lysate is loaded onto a 2 mL glutathione-sepharose column (Pharmacia) and washed three times with 10 mL of 25 mM Tris-HCl, pH 7.5, 2 mM EDTA, 1 mM DTT, 200 mM NaCl. The GST-tagged proteins are then eluted by 10 applications (1 mL each) of 25 mM Tris-HCl, pH 7.5, 10 mM reduced-glutathione, 100 mM NaCl, 1 mM DTT, 10% Glycerol and stored at −70° C. Protein kinase assays: The activities of protein kinases are assayed in the presence or absence of inhibitors, by measuring the incorporation of 33P from [γ33P]ATP into a polymer of glutamic acid and tyrosine (poly(Glu,Tyr)) as a substrate. The kinase assays with purified GST-EphB (30 ng) are carried out for 15-30 min at ambient temperature in a final volume of 30 μL containing 20 mM Tris.HCl, pH 7.5, 10 mM MgCl2, 3-50 mM MnCl2, 0.01 mM Na3VO4, 1% DMSO, 1 mM DTT, 3 μg/mL poly(Glu,Tyr) 4:1 (Sigma; St. Louis, Mo., USA) and 2.0-3.0 μM ATP (γ-[33P]-ATP 0.1 μCi). The assay is terminated by the addition of 20 μL of 125 mM EDTA. Subsequently, 40 μl of the reaction mixture are transferred onto Immobilon-PVDF membrane (Millipore, Bedford, Mass., USA) previously soaked for 5 min with methanol, rinsed with water, then soaked for 5 min with 0.5% H3PO4 and mounted on vacuum manifold with disconnected vacuum source. After spotting all samples, vacuum is connected and each well rinsed with 200 μl 0.5% H3PO4. Membranes are removed and washed 4× on a shaker with 1.0% H3PO4, once with ethanol. Membranes are counted after drying at ambient temperature, mounting in Packard TopCount96-well frame, and addition of 10 μL/well of Microscint™ (Packard). IC50 values are calculated by linear regression analysis of the percentage inhibition of each compound in duplicate, at four concentrations (usually 0.01, 0.1, 1 and 10 μM). One unit of protein kinase activity is defined as 1 nmole of 33P ATP transferred from [γ33P] ATP to the substrate protein per minute per mg of protein at 37° C. Compounds of formula I show EphB4 inhibition down to 10 nM, preferably IC50 values between 0.01-1.0 μM.

For orientation: IC50 means the concentration at which inhibition is half-maximal. In general, melting point refers to the temperature of the solid-liquid transition.

Where two headings read alike, the source gives them in different places.

With `COc1cccc(-c2cnc3c(-c4ccc(N5CCN(C)CC5)cc4)cnn3c2N)c1` [Example 2, 6-(3-Methoxy-phenyl)-3-[4-(4-methyl-piperazin-1-yl)-phenyl]-pyrazolo[1,5-a]pyrimidin-7-ylamine], the IC50 in data set [1] was under 10 µM.

`CN(C)c1ccc(-c2cnn3c(N)c(-c4ccc(NS(=O)(=O)c5cccc(Cl)c5Cl)cc4)cnc23)cc1` [Example 10, N-{4-[7-Amino-3-(4-dimethylamino-phenyl)-pyrazolo[1,5-a]pyrimidin-6-yl]-phenyl}-2,3-dichloro-benzenesulfonamide] had a melting point of 143 to 146 °C.

Consider `CN(C)c1ccc(-c2cnn3c(N)c(-c4ccc(OS(=O)(=O)c5ccc(Cl)cc5)cc4)cnc23)cc1` [Example 11, 4-Chloro-benzenesulfonic acid 4-[7-amino-3-(4-dimethylamino-phenyl)-pyrazolo[1,5-a]pyrimidin-6-yl]-phenyl ester], for which the melting point lay within 186 to 188 °C.

Regarding `CN1CCN(c2cccc(-c3cnn4c(N)c(-c5ccccc5O)cnc34)c2)CC1` [Example 37, 2-{7-Amino-3-[3-(4-methyl-piperazin-1-yl)-phenyl]-pyrazolo[1,5-a]pyrimidin-6-yl}-phenol], the IC50 in data set [1] is under 10 µM.

As to `Cn1cc(-c2cnn3c(N)c(-c4cccc(O)c4)cnc23)c2ccccc21` [Example 45, 3-[7-Amino-3-(1-methyl-1H-indol-3-yl)-pyrazolo[1,5-a]pyrimidin-6-yl]-phenol], the IC50 in data set [2] (Table 4, read-out: EphB4, activity (IC50 for kinase inhibition)) was under 10 µM.

Compound `COc1ccc(N2CCN(C)CC2)cc1-c1cnn2c(N)c(-c3cccc(Cl)c3)c(C)nc12` [Example 74, 6-(3-Chloro-phenyl)-3-[2-methoxy-5-(4-methyl-piperazin-1-yl)-phenyl]-5-methyl-pyrazolo[1,5-a]pyrimidin-7-ylamine] displayed a melting point of 116 to 121 °C. In data set [2] (Table 5, read-out: EphB4, IC50 class), the IC50 was under 1 µM.

Regarding `CCN(CC)C1CCN(c2cccc(-c3cnn4c(N)c(-c5cccc(Cl)c5)c(C)nc34)c2)CC1` [Example 104, 6-(3-Chloro-phenyl)-3-[3-(4-diethylamino-piperidin-1-yl)-phenyl]-5-methyl-pyrazolo[1,5-a]pyrimidin-7-ylamine], the melting point was in the range of 163 to 168 °C.

As for `CCN(CC)C1CCN(c2cccc(-c3cnn4c(N)c(-c5ccc(F)cc5)c(C)nc34)c2)CC1` [Example 105, 3-[3-(4-Diethylamino-piperidin-1-yl)-phenyl]-6-(4-fluoro-phenyl)-5-methyl-pyrazolo[1,5-a]pyrimidin-7-ylamine], the melting point fell in the range of 208 to 210 °C.
